According to patent US20040138301A1, “Chemical uncouplers for the treatment of obesity” (priority 2002, published 2004):
Like-named read-outs stand apart in the source and are kept apart here.

Assays:
isolated mitochondria = assay: Assay (II): effect of chemical uncouplers on mitochondrial respiration using isolated mitochondria (oxygen consumption); type: biochemical
Description: Assay (II)—The Effect of Chemical Uncouplers on Mitochondrial Respiration Using Isolated Mitochondria.
This assay is used to investigate if the increase in glucose utilisation caused by the test compounds observed in the glucose utilisation assay is due to an increase in the respiration of the mitochondria. This is done by measuring oxygen consumption in isolated mitochondria.
A Clark oxygen electrode is used to determine the oxygen consumption. The isolated mitochondria are added to medium containing oxygen and nutrients (e.g. Succinate) and the rate of oxygen consumptions is measured, when stabilized a small amount of ADP is added to increase the respiration and an increase in the rate of oxygen consumption is measured. When the rate of oxygen consumption again has stabilized the test compound is added and a further increase in oxygen consumption is seen. This experiment is done with and without the addition of oligomycin which is an inhibitor of the ATP-synthase. Finally, the test compound is examined without adding ADP. If the test compound stimulates the rate of oxygen consumption in all setups, it is regarded as a chemical uncoupler.

HEP-G2 cells = assay: cells; settings: Homo sapiens; for EC50: HepG2, 3 h
Procedure, shortened: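 HEP-G2 cells were treated with compound for 3 h at 37 °C in MEM/0.5% BSA containing 10 μCi/ml D-(3-^3H(N))-glucose, then lysed with TCA; ^3H-water released via the respiratory chain was recovered by evaporation at 50 °C and counted. Values are corrected for non-specific and basal counts, expressed as % of maximal FCCP or DNP stimulation, and EC50 is from a variable-slope sigmoidal fit.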

FSK-4 cells = assay: Assay (IV): Glucose utilisation in FSK-4 cells; type: cell-based; settings: for EC50: read-out: FSK4 EC50; for Emax: read-out: FSK4 Emax (% of FCCP)
[1] = humans; cited from earlier work
[2] = HepG2, read-out: HEP-G2 Emax (% of FCCP)
[3] = HepG2, read-out: HEP-G2 Emax (μM)
[4] = read-out: HEP-G2 EC50, HEP-G2 cells, glucose utilisation, 3 hours incubation
[5] = HepG2, read-out: HEP-G2 Emax (% of FCCP), HEP-G2 cells, maximal stimulation relative to FCCP
[6] = HepG2, read-out: HEP-G2 Emax (μM), HEP-G2 cells, concentration at which Emax is achieved (CEmax)

Row | Compound | Mito State-4 (isolated mitochondria) | EC50 (HEP-G2 cells; read-out: HEP-G2 EC50) [nM] | Emax (HEP-G2 cells; [2]) [%] | EC (Emax) (HEP-G2 cells; [3]) [µM] | EC50 (FSK-4 cells; 24 h) [nM] | Emax (FSK-4 cells) [%] | lowest dose which could be lethal relative to average dose giving a desired 50% increase in basal metabolic rate [1] | EC50 (HEP-G2 cells; [4]) [nM] | Emax (HEP-G2 cells; [5]) [%] | EC (Emax) (HEP-G2 cells; [6]) [µM] | EC50 (FSK-4 cells; FSK-4 cells, glucose utilisation, 24 hours incubation) [nM] | Emax (FSK-4 cells; FSK-4 cells, maximal efficacy relative to FCCP) [%]
1 | CC(C)(C)c1cc([N+](=O)[O-])cc(C(C)(C)C)c1O [Example 72, 2,6-Di-Tert-Butyl-4-Nitro-Phenol] | Ok | 13000 | 100 | 100 |  |  |  |  |  |  |  | 
2 | O=[N+]([O-])c1ccc(O)c([N+](=O)[O-])c1 [Example 26, 2,4-Dinitrophenol, reference compound] | Ok | 225000 | 100 | 500 | 90000 | 95 | twice |  |  |  |  | 
3 | CC(C)(C)c1cc(C=C(C#N)C#N)cc(C(C)(C)C)c1O [Example 25, 2,6-Di-t-Butyl-4-(2′,2′-Dicyanovinyl)Phenol, reference compound] | Ok | 480 | 100 | 10 | 10 | 110 |  |  |  |  |  | 
4 | CC(C)(C)c1cc(C(=O)Nc2ccc([N+](=O)[O-])cc2Cl)c(O)c(C(C)(C)C)c1 [Example 40, 3,5-Di-Tert-Butyl-N-(2-Chloro-4-Nitro-Phenyl)-2-Hydroxy-Benzamide] | Ok |  |  |  |  |  |  | 580 | 105 | 3 |  | 
5 | CC(CCC(=O)O)(c1ccc(O)c([N+](=O)[O-])c1)c1ccc(O)c([N+](=O)[O-])c1 [Example 1, 4,4-Bis-(4-Hydroxy-3-Nitrophenyl)-Valeric Acid] | Ok | 40000 | 45 | 100 |  |  |  |  |  |  |  | 
6 | Cc1c(Br)cc(C(C)(C)C)c(O)c1C(=O)Nc1c(Cl)cc([N+](=O)[O-])cc1Cl [Example 55, 3-Bromo-5-Tert-Butyl-N-(2,6-Dichloro-4-Nitro-Phenyl)-6-Hydroxy-2-Methyl-Benzamide] |  |  |  |  |  |  |  | 360 | 99 | 1 | 300 | 100
